Assay results from patent US11376307B2, “Compositions and methods of treating cancer with glycomimetic peptides” (SUSAVION BIOSCIENCES, INC., priority 2018, dated 2022).
“Also recorded” adds a separate entry of the source. Positions of bridges follow the written chain, without caps; N, C: chain ends. Chains are numbered I, II in the order given.

Assays:
[1] = target: T1, recombinant human CLEC10A (Homo sapiens, UniProt Q8IUN9); experiment: Solid-phase binding assay with recombinant receptors; settings: for Binding to CLEC10A: biotinylated tetravalent peptide
T1 construct: The extracellular domains of receptors, which were fused with the Fc domain of immunoglobulin IgG; purchased R&D Systems
T1 sequence (Q8IUN9 61-316 limits assumed): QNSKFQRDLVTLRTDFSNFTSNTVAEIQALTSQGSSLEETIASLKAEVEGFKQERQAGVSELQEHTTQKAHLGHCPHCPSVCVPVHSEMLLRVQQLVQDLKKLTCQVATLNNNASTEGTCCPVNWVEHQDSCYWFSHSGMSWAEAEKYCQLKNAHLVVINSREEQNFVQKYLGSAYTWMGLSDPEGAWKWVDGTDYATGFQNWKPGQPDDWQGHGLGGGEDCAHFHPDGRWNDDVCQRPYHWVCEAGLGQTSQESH
Experimental: (§1) Binding Assays Solid-phase binding assays were performed with streptavidin-, protein A/G-, or Nickel-coated microtiter plates (Pierce). His-tagged or Fc-fusion recombinant receptors (R&D Systems, Minneapolis, Minn.) were reconstituted in PBS. Sufficient receptors were added to wells to saturate the coating. His-tagged receptors were added to each well at a 5-fold excess over the stated capacity of the Ni coating to minimize non-specific binding of the peptide. Wells were washed three times with binding buffer (25 mM Tris HCl, pH 7.4, 150 mM NaCl, 0.05% Tween-20) to remove unbound receptor and 50 μL of 2 μM biotinylated peptide in binding buffer were added and allowed to incubate for 1 h. The wells were washed four times with binding buffer and then incubated with 50 μL of 1 μg/mL streptavidin conjugated with peroxidase (Sigma-Aldrich) for 1 h. The wells were washed five times with binding buffer and 50 μL of peroxidase substrate (1-Step™ Ultra TMB, Pierce) were added. After several minutes to allow color development, the reaction was stopped with 50 μL 1 M H3PO4 and absorbance was measured at 450 nm. Bound streptavidin was quantitated by the specific activity of peroxidase (absorbance/ng protein conjugate/min) under the conditions of the assay.
(§2) Solid-phase binding assays were performed with recombinant human receptors. Three variations of the binding assay were used in this study, all of which allowed the arms of the tetravalent peptide to have full flexibility. (i) Biotinylated peptide was bound in microtiter wells coated with streptavidin and incubated with recombinant human receptors. After extensive washing, the bound receptor was measured by peroxidase conjugated to a receptor-specific antibody. (ii) The extracellular domains of receptors, which were fused with the Fc domain of immunoglobulin IgG, were bound in wells coated with protein A/G. Biotinylated peptide was incubated with the receptors and, after extensive washing, bound peptide was measured with streptavidin conjugated with peroxidase. Or (iii), recombinant receptors with a poly-His tag were bound to Nickel-coated wells and incubated with biotinylated peptide. svL4 and sv6D contain His residues (FIGS. 1A, 1C) and can bind to the Ni coating, which was minimized by adding sufficient poly-His-tagged receptor to saturate the Ni coating.

human ASGPR-1 = target: T2, human ASGPR-1 (Homo sapiens, UniProt P07306); experiment: as above; settings: biotinylated tetravalent peptide
T2 construct: The extracellular domains of receptors, which were fused with the Fc domain of immunoglobulin IgG; purchased R&D Systems
T2 sequence (P07306 62-291 limits assumed): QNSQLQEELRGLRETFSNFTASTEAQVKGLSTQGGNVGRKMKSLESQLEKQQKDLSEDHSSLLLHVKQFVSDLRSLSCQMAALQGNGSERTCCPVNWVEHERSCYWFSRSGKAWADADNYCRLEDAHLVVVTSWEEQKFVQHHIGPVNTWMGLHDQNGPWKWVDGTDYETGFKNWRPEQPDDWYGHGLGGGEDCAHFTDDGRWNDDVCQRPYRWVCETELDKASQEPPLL
Experimental: as §1, §2

[2] = test system: human monocyte-derived DCs co-cultured with CD3+ T cells; experiment: Allogenic mixed leukocyte reaction, IFN-γ release; assay type: cell-based
Experimental: FIGS. 5A-5B. Mixed leukocyte reaction. An allogenic mixture of 5×10^3 human monocyte-derived immature dendritic cells and 1×10^5 negatively selected CD3^+ T cells were incubated with various concentrations of sv6D. (FIG. 5A) Effect of concentration of sv6D in the medium on release of IFN-γ after 5 days of culture. […] (FIG. 5B) The time course of the appearance of IFN-γ in the medium of cultures incubated with 10 nM sv6D in (FIG. 5A) as compared with control incubations with PBS.
Binding of a peptide to CLEC10A expressed by DCs is expected to stimulate maturation and potential activation of T cells. This hypothesis was tested by an experiment in which human monocyte-derived DCs were co-cultured with T cells. Expression of CLEC10A (CD301) by the DCs was established by flow cytometry. sv6D was added to the medium at various concentrations, and IFN-γ production by T cells was assayed. […] Significant release of IFN-γ occurred after 3 days of incubation (FIG. 5B), a time required for DC maturation.

[3] = Antigenicity assay of mouse sera; design: species or system mice; settings: alternate-day injections for 3 months, 1 nmol/g
Experimental: FIG. 10. Test for antigenicity of svL4 and sv6D. Anti-sera were generated in rabbits against KLH-conjugates of the sequences of svL4 or sv6D and diluted 1:10. Mouse sera were collected after alternate-day injections of svL4 over 3 months, diluted 1:1 with PBS and added to protein-A/G-coated wells. Biotinylated svL4 or sv6D was added to wells and bound peptide was detected with a streptavidin-peroxidase conjugate. The figure includes average values for sera from 8 treated mice in each group assayed separately.
Antigenicity Assay The sequence of one arm of svL4 or sv6D was conjugated to keyhole limpet hemocyanin (KLH) and injected into rabbits at two-week intervals (total of 3 injections) (New England Peptide, Inc., Gardner, Mass.). Two weeks after the final injection, sera were prepared. Mice were injected with a peptide every other day over a period of 3 months (total ˜45 injections), blood was then collected by cardiac puncture and sera were prepared. Rabbit serum was diluted 1:10, whereas mouse serum was diluted 1:1 or 1:5 with PBS containing 0.05% Tween-20 (PBST). Sera were incubated in microtiter wells coated with protein A/G (Pierce) for 90 min. The wells were washed three times with PBST, and then incubated with 50 μL of 1 μM biotinylated svL4 or sv6D for 1 h. […]

CLEC4F = experiment: Solid-phase binding assay, survey of other receptors; design: species or system human
Experimental: as §1, with “The wells were washed five times with binding buffer and 50 μL of peroxidase substrate (1-Step™ Ultra TMB, Pierce) were added.” left out
Solid-phase binding assays were performed with recombinant human receptors. […] After extensive washing, the bound receptor was measured by peroxidase conjugated to a receptor-specific antibody. […]

[4] = test system: 4T1 breast cancer-bearing mice; settings: 0.1 nmol/g svL4 s.c., 4 h
Experimental: When tumors reached a volume of at least 500 mm^3, animals were randomized into groups of 3 and dosed with either 0.1 or 1.0 nmol/g of svL4. At 4 h post dose, terminal blood was collected from 3 animals per group and prepared for serum. Sera were also collected from healthy Balb/c mice by the same procedure. Changes in the levels of cytokines/chemokines in sera from breast cancer-bearing and healthy mice were analyzed with the mouse L-308 membrane array by RayBiotech, Inc. (Norcross, Ga.) (Table 2).
Markers of lymphocyte and monocyte activation in response to 0.1 nmol/g svL4 in Balb/c mice bearing breast tumors are compared with healthy mice. Sera from three animals were pooled for analysis with an array of 308 soluble factors.
After the tumors had grown over a period of 10 to 12 days to a size of −500 mm^3, svL4 was injected subcutaneously at doses of 0.1 or 1.0 nmol/g. Sera were prepared 4 h after injection and analyzed with an array of 308 cytokines/chemokines.

[5] = High = control value negligible or low

Row | Substance | Binding to CLEC10A [1] | Ca2+ dependence of binding ([1]; chelation of Ca2+ with low concentrations of EGTA, CLEC10A and ASGPR-1) | Binding to ASGPR-1 (human ASGPR-1) | Incubation time after which significant release of IFN-γ occurred ([2]; 10 nM sv6D) [days] | Concentration giving maximal IFN-γ production / optimal cellular response ([2]; 5 days of culture) [nM] | Antibodies that bind the peptides in mouse sera (antigenicity) [3] | Binding to CLEC4F (CLEC4F) | Ratio of level of IFN-γ in sera (treated vs. untreated) [4, 5] | Ratio of level of IL-17 in sera (treated vs. untreated) [4, 5] | Ratio of level of IL-21 in sera (treated vs. untreated) [4, 5] | Ratio of level of IL-23 in sera (treated vs. untreated) [4, 5] | Ratio of level of IL-1α in sera (treated vs. untreated) ([4]; pooled sera of 3) | Ratio of level of IL-2 in sera (treated vs. untreated) ([4]; pooled sera of 3) | Ratio of level of IL-12p70 in sera (treated vs. untreated) ([4]; pooled sera of 3) | Ratio of level of IL-27 in sera (treated vs. untreated) ([4]; pooled sera of 3) | Ratio of level of IL-28 in sera (treated vs. untreated) ([4]; pooled sera of 3) | Ratio of level of IL-31 in sera (treated vs. untreated) ([4]; pooled sera of 3) | Ratio of level of Lymphotoxin-α in sera (treated vs. untreated) ([4]; pooled sera of 3) | Ratio of level of TNFα in sera (treated vs. untreated) ([4]; pooled sera of 3) | Ratio of level of sHVEM in sera (treated vs. untreated) ([4]; pooled sera of 3)
1 | I: H-NQHTPRGGGSKK-NH2 / II: H-NQHTPRGGGSK / III: H-NQHTPRGGGS / IV: H-NQHTPRGGGS (amide I:11-IV:C, I:12-II:C, II:11-III:C) [sv6D] | bound as strongly as the full-length sequence | requires Ca^2+ | bound as strongly as the full-length sequence | 3 | 10 | negative; also recorded: not antigenic | bound |  |  |  |  |  |  |  |  |  |  |  |  | 
2 | I: H-VQATQSNQHTPRGGGSKK-NH2 / II: H-VQATQSNQHTPRGGGSK / III: H-VQATQSNQHTPRGGGS / IV: H-VQATQSNQHTPRGGGS (amide I:17-IV:C, I:18-II:C, II:17-III:C) [svL4] | bound |  | bound |  |  | negative | bound | High | High | High | High | 3 | 56 | 3 | 4.5 | 4.3 | 3.5 | 12.5 | 45 | 2
